# According to patent publication US20210198277A1, “AMINE-SUBSTITUTED ARYL OR HETEROARYL COMPOUNDS” (Epizyme, Inc., priority 2016, published 2021):
# Molecular target: T1, EHMT2 (Homo sapiens, UniProt Q96KQ7)
# T1 construct: host or cells: MDA-MB-231
# T1 sequence (Q96KQ7 1-1210): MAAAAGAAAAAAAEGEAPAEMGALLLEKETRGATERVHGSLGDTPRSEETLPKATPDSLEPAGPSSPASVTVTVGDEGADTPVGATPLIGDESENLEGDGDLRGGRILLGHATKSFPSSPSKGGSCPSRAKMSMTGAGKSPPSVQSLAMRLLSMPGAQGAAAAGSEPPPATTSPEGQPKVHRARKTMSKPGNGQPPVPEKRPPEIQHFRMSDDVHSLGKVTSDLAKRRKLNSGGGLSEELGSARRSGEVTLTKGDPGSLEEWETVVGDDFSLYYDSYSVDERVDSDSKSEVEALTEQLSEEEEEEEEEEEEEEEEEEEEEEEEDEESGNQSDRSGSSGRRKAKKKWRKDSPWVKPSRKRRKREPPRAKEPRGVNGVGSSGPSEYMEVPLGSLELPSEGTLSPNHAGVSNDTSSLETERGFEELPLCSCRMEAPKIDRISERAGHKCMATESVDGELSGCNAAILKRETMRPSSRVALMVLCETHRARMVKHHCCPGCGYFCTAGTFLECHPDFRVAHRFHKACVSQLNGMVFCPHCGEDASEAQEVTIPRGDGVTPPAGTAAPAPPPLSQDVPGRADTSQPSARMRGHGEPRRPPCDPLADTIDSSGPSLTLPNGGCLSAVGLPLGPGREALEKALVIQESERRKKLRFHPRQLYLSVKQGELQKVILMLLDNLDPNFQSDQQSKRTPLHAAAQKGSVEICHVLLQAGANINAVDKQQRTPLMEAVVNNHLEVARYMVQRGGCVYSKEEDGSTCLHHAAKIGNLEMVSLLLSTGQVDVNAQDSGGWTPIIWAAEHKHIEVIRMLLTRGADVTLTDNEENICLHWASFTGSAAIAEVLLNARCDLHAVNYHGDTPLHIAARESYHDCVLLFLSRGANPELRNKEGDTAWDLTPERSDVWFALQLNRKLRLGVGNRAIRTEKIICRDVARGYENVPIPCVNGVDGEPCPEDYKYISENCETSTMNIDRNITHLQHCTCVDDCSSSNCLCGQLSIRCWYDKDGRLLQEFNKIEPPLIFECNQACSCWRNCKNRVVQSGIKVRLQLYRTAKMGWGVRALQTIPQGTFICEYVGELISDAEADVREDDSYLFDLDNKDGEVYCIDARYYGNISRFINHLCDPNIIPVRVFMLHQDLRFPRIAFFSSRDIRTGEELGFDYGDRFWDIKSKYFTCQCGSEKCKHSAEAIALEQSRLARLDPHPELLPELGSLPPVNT
# Assay: MDA-MB-231 H3K9me2 in-cell Western assay (EHMT2 ICW)
# Type: cell-based
# Conditions: Table II; MDA-MB-231 H3K9me2 in-cell Western; read-out: EHMT2 ICW (IC50 μM)
# Method in brief: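 IC50 values came from a variable-slope four-parameter fit on triplicate wells, using % inhibition from the 800/700 nm infrared signal ratio (anti-H3K9me2 versus DRAQ5 DNA stain). Before fixation and immunostaining, MDA-MB-231 cells, 3,000 per well, were exposed to compound for 48 h at 37 °C.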
row,SMILES,IC50 [µM]
1,"COc1ccc(Nc2nccc(NCC3CCNCC3)n2)cc1OCCCN1CCOCC1 [Compound 16, N^2-(4-methoxy-3-(3-morpholinopropoxy)phenyl)-N^4-(piperidin-4-ylmethyl)pyrimidine-2,4-diamine]",> 10
2,"COc1ccc(Nc2nc(C)cc(NCC3CCN(C(C)=O)CC3)n2)cc1OCCCN1CCCC1 [Compound 19, 1-(4-(((2-((4-methoxy-3-(3-(pyrrolidin-1-yl)propoxy)phenyl)amino)-6-methylpyrimidin-4-yl)amino)methyl)piperidin-1-yl)ethan-1-one]",0.1 to 1
3,COc1ccc(Nc2nccc(NCc3ccccn3)n2)cc1OCCCN1CCCC1 [Compound 23],0.1 to 1
4,COc1ccc(Nc2nccc(NCc3ccncc3)n2)cc1OCCCN1CCCC1 [Compound 24],0.1 to 1
5,COc1cccc(CNc2ccnc(Nc3ccc(OC)c(OCCCN4CCCC4)c3)n2)c1 [Compound 26],0.1 to 1
6,COCCNc1ccnc(Nc2ccc(OC)c(OCCCN3CCCC3)c2)n1 [Compound 27],0.1 to 1
7,COc1ccc(Nc2nccc(NCC3CCN(C(C)C)CC3)n2)cc1OCCCN1CCCC1 [Compound 29],0.1 to 1
8,COc1ccc(Nc2nccc(NCc3cnn(C)c3)n2)cc1OCCCN1CCCC1 [Compound 30],0.1 to 1
9,COc1ccc(Nc2nccc(NCc3nc4ccccc4[nH]3)n2)cc1OCCCN1CCCC1 [Compound 31],0.1 to 1
10,COc1ccc(Nc2nccc(NCC3CCN(c4ccccc4)CC3)n2)cc1OCCCN1CCCC1 [Compound 33],0.1 to 1
11,COc1ccc(Nc2nccc(NCCNC(C)=O)n2)cc1OCCCN1CCCC1 [Compound 38],0.1 to 1
12,COc1ccc(Nc2nccc(NCCc3ccncc3)n2)cc1OCCCN1CCCC1 [Compound 39],0.1 to 1
13,COc1ccc(Nc2nccc(NCCOc3ccccc3)n2)cc1OCCCN1CCCC1 [Compound 40],1 to 10
14,COc1ccc(Nc2nccc(NCC(C)(C)O)n2)cc1OCCCN1CCCC1 [Compound 42],1 to 10
15,COc1ccc(Nc2nccc(NCCS(=O)(=O)N(C)C)n2)cc1OCCCN1CCCC1 [Compound 43],1 to 10
16,COc1ccc(Nc2nccc(NCCCN(C)C(C)=O)n2)cc1OCCCN1CCCC1 [Compound 44],1 to 10
17,COc1ccc(Nc2nccc(NCc3cc[nH]n3)n2)cc1OCCCN1CCCC1 [Compound 46],1 to 10

row,SMILES,IC50 [µM]
1,COc1ccc(Nc2nccc(NC3CCCCC3)n2)cc1OCCCN1CCCC1 [Compound 50],1 to 10
2,CNc1cc(Nc2ccc(OC)c(OCCCN3CCCC3)c2)ccn1 [Compound 206],> 10
3,"CNc1ccnc(Nc2ccc(OC)c(OCCCN3CCCC3)c2)c1 [Compound 209, N^2-(4-methoxy-3-(3-(pyrrolidin-1-yl)propoxy)phenyl)-N^4-methylpyridine-2,4-diamine]",1 to 10
4,COc1ccc(Nc2nccc(-n3nc(C)cc3C)n2)cc1OCCCN1CCCC1 [Compound 214],> 10
5,COc1ccc(Nc2ccnc(NCC3CCN(C(C)=O)CC3)n2)cc1OCCCN1CCCC1 [Compound 216],> 10
6,COc1ccc(Nc2ccc3cnn(C)c3c2)cc1OCCCN1CCCC1 [Compound 217],> 10
7,COc1ccc(Nc2ccc3ncn(C)c3n2)cc1OCCCN1CCCC1 [Compound 218],> 10
8,COc1ccc(Nc2ncc3ncn(C)c3n2)cc1OCCCN1CCCC1 [Compound 219],> 10
9,COc1ccc(Nc2cccc3cn(C)nc23)cc1OCCCN1CCCC1 [Compound 222],> 10
10,COc1ccc(Nc2ccc3ncc(C)n3n2)cc1OCCCN1CCCC1 [Compound 223],> 10
11,COc1ccc(Nc2nccc(-c3cnn(C)c3)n2)cc1OCCCN1CCCC1 [Compound 224],> 10
12,COc1ccc(Nc2nccc(Nc3cccc(F)c3)n2)cc1OCCCN1CCCC1 [Compound 225],1 to 10
13,COc1ccc(OCCCN2CCCC2)cc1Nc1nccc(NCC2CCOCC2)n1 [Compound 227],> 10
14,CNc1ccnc(Nc2ccc(OC)c(OCCCN3CC(F)C3)c2)n1 [Compound 230],1 to 10
15,CNc1nccc(Nc2ccc(OC)c(OCCCN3CCCC3)c2)n1 [Compound 231],0.1 to 1
16,CNc1nc(Nc2ccc(OC)c(OCCCN3CCCC3)c2)ncc1C#N [Compound 233],> 10

# The next lines start with the values.
row,IC50 [µM],SMILES
1,> 10,"COc1ccc(Nc2nccc(NCC3CCNCC3)n2)cc1CCNCC1CCCC1 [Compound 17, N^2-(3-(2-((cyclopentylmethyl)amino)ethyl)-4-methoxyphenyl)-N^4-(piperidin-4-ylmethyl)pyrimidine-2,4-diamine]"
2,1 to 10,"COc1ccc(Nc2nccc(NCC3CCN(C(C)=O)CC3)n2)cc1OCC1CCN(C)C1 (stereo not shown) [Compound 18, 1-(4-(((2-((4-methoxy-3-((1-methylpyrrolidin-3-yl)methoxy)phenyl)amino)pyrimidin-4-yl)amino)methyl)piperidin-1-yl)ethan-1-one]"
3,0.1 to 1,COc1ccc(Nc2nccc(NC(C)C)n2)cc1OCCCN1CCCC1 [Compound 20]
4,0.1 to 1,COc1ccc(Nc2nccc(NCc3ccccc3)n2)cc1OCCCN1CCCC1 [Compound 21]
5,0.1 to 1,COCCCNc1ccnc(Nc2ccc(OC)c(OCCCN3CCCC3)c2)n1 [Compound 22]
6,0.1 to 1,COc1ccc(Nc2nccc(NCc3cccnc3)n2)cc1OCCCN1CCCC1 [Compound 25]
7,0.1 to 1,COc1ccc(CNc2ccnc(Nc3ccc(OC)c(OCCCN4CCCC4)c3)n2)cc1 [Compound 28]
8,0.1 to 1,COc1ccc(Nc2nccc(NCC3CCN(C)CC3)n2)cc1OCCCN1CCCC1 [Compound 32]
9,0.1 to 1,COc1ccc(Nc2nccc(NCC3CCCC3)n2)cc1OCCCN1CCCC1 [Compound 34]
10,0.1 to 1,COc1ccc(Nc2cccc(NC3CCC3)n2)cc1OCCCN1CCCC1 [Compound 35]
11,0.1 to 1,COc1ccccc1CNc1ccnc(Nc2ccc(OC)c(OCCCN3CCCC3)c2)n1 [Compound 36]
12,0.1 to 1,COc1ccc(Nc2nccc(NCCc3cccnc3)n2)cc1OCCCN1CCCC1 [Compound 37]
13,1 to 10,CNC(=O)CNc1ccnc(Nc2ccc(OC)c(OCCCN3CCCC3)c2)n1 [Compound 41]
14,1 to 10,COc1ccc(Nc2nccc(NCC3(O)CCCCC3)n2)cc1OCCCN1CCCC1 [Compound 45]
15,1 to 10,"COc1ccc(Nc2nccc(NCC3CCN(C(C)=O)CC3)n2)cc1OCCCN1CCCC1 [Compound 47, 1-(4-(((2-((4-methoxy-3-(3-(pyrrolidin-1-yl)propoxy)phenyl)amino)pyrimidin-4-yl)amino)methyl)piperidin-1-yl)ethan-1-one]"
16,1 to 10,COc1ccc(Nc2nccc(NCC3CCN(C(C)=O)CC3)n2)cc1COCCN1CCCC1 [Compound 48]
17,1 to 10,COc1ccc(Nc2nccc(NCC3(O)CCOCC3)n2)cc1OCCCN1CCCC1 [Compound 49]
18,< 0.1,"CNc1cc(C)nc(Nc2ccc(OC)c(OCCCN3CCCC3)c2)n1 [Compound 205, N^2-(4-methoxy-3-(3-(pyrrolidin-1-yl)propoxy)phenyl)-N^4,6-dimethylpyrimidine-2,4-diamine]"
19,1 to 10,"CNc1ccnc(Nc2cccc(OCCCN3CCCC3)c2)n1 [Compound 207, N^4-methyl-N^2-(3-(3-(pyrrolidin-1-yl)propoxy)phenyl)pyrimidine-2,4-diamine]"
20,1 to 10,CNc1nc(C)cc(Nc2ccc(OC)c(OCCCN3CCCC3)c2)n1 [Compound 208]
21,1 to 10,CNc1ccnc(Nc2ccc(OC)c(OCCCN3CCOCC3)c2)n1 [Compound 210]
22,> 10,CNCc1cnc(Nc2ccc(OC)c(OCCCN3CCCC3)c2)nc1 [Compound 215]
23,> 10,COc1ccc(Nc2cccc3ncnn23)cc1OCCCN1CCCC1 [Compound 220]
24,> 10,COc1ccc(Nc2ccc3nn(C)cc3c2)cc1OCCCN1CCCC1 [Compound 221]
25,1 to 10,COc1ccc(Nc2nccc(NCC3CCOCC3)n2)cc1NCCCN1CCCC1 [Compound 226]
26,> 10,COc1ccc(NCCCN2CCCC2)cc1Nc1nccc(NCC2CCOCC2)n1 [Compound 228]
27,1 to 10,CNc1ccnc(Nc2ccc(OC)c(OCCCN3CC[C@@H](F)C3)c2)n1 [Compound 229]
28,> 10,CNc1cc(C)nc(Nc2ccc(F)c(OCCCN3CCCC3)c2)n1 [Compound 232]
